Experimental data from patent US8598128B2, “Fructosylated puerarin, and preparation method and use thereof” (priority 2010, dated 2013).
Converted amounts (≈) assume the structure as drawn. “Also recorded” adds a separate entry of the source.

Assays:
[1] = Metabokinetic experiment in blood after caudal vein injection; details: 50 mg/kg caudal vein, n = 5
Protocol: Embodiment 5: Metabokinetic Experiment of monofructosyl-β(2,6)-Puerarin in Blood
In HPLC analysis, DIONEX was used, with chromatographic column as Discovery HS C18 ([…], 5 μm), feeding specimen volume 20 μL, column temperature 30° C., the detector was UVD170U, with detection wavelength of 254 nm, flowing phase: A, water, B, chromatographic class methanol, A:B=80:20, at flow rate of 1 mL/min.
Sprague-Dawley mice (SD mice), with weight of 180-220 g, male and female in half, provided by Medical Experiment Center of Nantong University, with production permit No.: SCXK (Su) 20080010.
SD mice were randomly divided into 2 groups of 5 each, fasting for 12 hours before experiment. Puerarin and monofructosyl-β(2,6)-puerarin were respectively dissolved in 20% 1,2-PG normal saline, and injected into mouse caudal vein at a dosage of 50 mg/kg. After injection, at t=0 min, 4 min, 7 min, 17 min, 40 min, 60 min, 120 min and 180 min, 0.5 mL of blood was taken from orbit and put into centrifugal tubes treated with liquaemin, then it was immediately separated by centrifuging at 3000 rpm for 15 min, to separate out plasma for analysis.
Plasma of 100 μL was precisely taken and put into test tube, and 400 μL of methanol sedimented protein was added, they were mixed on vortex mixer for 5 min, then centrifuged at 10000 rpm for 10 min, and the supernatant was used for HPLC analysis.
The plasma concentration of the puerarin and monofructosyl-β(2,6)-puerarin specimens prepared as per 3.2 was obtained by calculation with external reference method. The data obtained were analyzed using pharmacokinetics statistic software.

myocardio ischemia mice [2] = test: T wave amplitude variation in pituitrin acute myocardial ischemia model; format: in vivo, Sprague-Dawley mice (SD mice)
Excerpt: (§1) Embodiment 6: […] Pituitrin injection was purchased from Nanjing Xinbai Pharmaceutical Co., Ltd., normal saline injection from Nanjing Xiaoying Pharmaceutical Co., Ltd., and DMSO, PG, and anhydrous ethanol were of chromatographic class. […] The data were presented with, and tested with t. P<0.05 indicates substantial difference, P<0.01 indicates very substantial difference; and P<0.001 indicates extremely substantial difference.

myocardio ischemia mice [3] = test: Heart rate in pituitrin acute myocardial ischemia model; format: in vivo, Sprague-Dawley mice (SD mice)
Excerpt: as §1

[4] = system: human breast cancer cell strain MDA-MB-231; test: MDA-MB-231 cell toxicity test (MTT); format: cell-based; details: 48 h; for OD value: MTT 490 nm
Protocol: MDA-MB-231 cells were cultured in an incubator at 37° C. with 5% CO2 saturated humidity in the RPMI-1640 complete culture medium containing inactivated fetal calf serum with volume fraction of 10%, 100 U penicillin and streptomycin. Take MDA-MB-231 cells in logarithmic phase (primary culture bottle) and discard the culture solution. […] Prepare the suspended solution of cells and adjust the cell concentration with appropriate amount of complete culture medium to 3×10^4/mL. Fed the cells into a tissue culture plate 96, with cell suspended liquid of 180 μL in each case, and put the culture plate into a cell incubator (37° C., 5% CO2) for conventional culture. When cells grew to 50%-70%, add drug liquid of different concentration. […] For DMSO solvent control group, add 20 μL of PBS containing […] and for the blank group, add 20 μL of PBS. For each drug concentration, 6 complex cases were provided. Put back the culture plate into the cell incubator, after 48 h, add 20 μL MTT (5 mg/mL) solution and continue to incubate it in the incubator for 4 h, then remove the supernatant and dry it with tissue, add 200 μL DMSO into each case and vibrate it in the rocker without light for 15 min, to allow the crystal to fully dissolve. Determine the light absorption at 490 nm with a fully automatic ELISA instrument, and calculate the average suppression rate, suppression rate (%)=(control group A490−test group A490)/control group A490), the experiment was repeated three times. Relevant analysis and Student t tests in Microsoft Excel 2003 were used, and data are presented in X±SD.

[5] = Solubility determination at 25° C.

O=c1c(-c2ccc(O)cc2)coc2c([C@@H]3O[C@H](CO[C@]4(CO)O[C@H](CO)[C@@H](O)[C@@H]4O)[C@@H](O)[C@H](O)[C@H]3O)c(O)ccc12 [monofructosyl-β(2,6)-puerarin]
AUC (0-t) [1]: 5523.446 ± 688.104 mg/Lxmin | CL (whole body clearance) [1]: 9 ± 1 mL/min/kg | MRT (0-t) [1]: 25.707 ± 2.324 min | MRT (0-∞) [1]: 27.453 ± 2.976 min | Y [1]: 0.256 ± 0.032 L/kg | t½ (half life of clearance) [1]: 19.741 ± 2.34 min | T wave amplitude variation (myocardio ischemia mice [2]; 12.5 mg/kg, 15 s after Pit): 0.082 ± 0.060 mv | T wave amplitude variation (myocardio ischemia mice [2]; 12.5 mg/kg, 30 s after Pit): 0.097 ± 0.084 mv | T wave amplitude variation (myocardio ischemia mice [2]; 12.5 mg/kg, 1 min after Pit): 0.051 ± 0.034 mv | T wave amplitude variation (myocardio ischemia mice [2]; 12.5 mg/kg, 2 min after Pit): 0.102 ± 0.071 mv | T wave amplitude variation (myocardio ischemia mice [2]; 12.5 mg/kg, 5 min after Pit): 0.069 ± 0.040 mv | T wave amplitude variation (myocardio ischemia mice [2]; 12.5 mg/kg, 10 min after Pit): 0.068 ± 0.038 mv | T wave amplitude variation (myocardio ischemia mice [2]; 25 mg/kg, 15 s after Pit): 0.053 ± 0.027 mv | T wave amplitude variation (myocardio ischemia mice [2]; 25 mg/kg, 30 s after Pit): 0.105 ± 0.076 mv | T wave amplitude variation (myocardio ischemia mice [2]; 25 mg/kg, 1 min after Pit): 0.116 ± 0.088 mv | T wave amplitude variation (myocardio ischemia mice [2]; 25 mg/kg, 2 min after Pit): 0.112 ± 0.087 mv | T wave amplitude variation (myocardio ischemia mice [2]; 25 mg/kg, 5 min after Pit): 0.067 ± 0.038 mv | T wave amplitude variation (myocardio ischemia mice [2]; 25 mg/kg, 10 min after Pit): 0.054 ± 0.038 mv | T wave amplitude variation (myocardio ischemia mice [2]; 50 mg/kg, 15 s after Pit): 0.092 ± 0.067 mv | T wave amplitude variation (myocardio ischemia mice [2]; 50 mg/kg, 30 s after Pit): 0.118 ± 0.087 mv | T wave amplitude variation (myocardio ischemia mice [2]; 50 mg/kg, 1 min after Pit): 0.109 ± 0.084 mv | T wave amplitude variation (myocardio ischemia mice [2]; 50 mg/kg, 2 min after Pit): 0.106 ± 0.091 mv | T wave amplitude variation (myocardio ischemia mice [2]; 50 mg/kg, 5 min after Pit): 0.080 ± 0.070 mv | T wave amplitude variation (myocardio ischemia mice [2]; 50 mg/kg, 10 min after Pit): 0.082 ± 0.058 mv | effect against myocardial ischemia (T wave) in words (myocardio ischemia mice [2]; 12.5, 25 and 50 mg/kg, compared with puerarin): can better resist myocardial ischemia than puerarin; also recorded: has better effect to resist myocardio ischemia than puerarin | Heart rate (myocardio ischemia mice [3]; 12.5 mg/kg, 5 s): 433 ± 63 time · min^−1 | Heart rate (myocardio ischemia mice [3]; 12.5 mg/kg, 10 s): 416 ± 79 time · min^−1 | Heart rate (myocardio ischemia mice [3]; 12.5 mg/kg, 15 s): 411 ± 75 time · min^−1 | Heart rate (myocardio ischemia mice [3]; 12.5 mg/kg, 30 s): 389 ± 72 time · min^−1 | Heart rate (myocardio ischemia mice [3]; 12.5 mg/kg, 1 min): 347 ± 71 time · min^−1 | Heart rate (myocardio ischemia mice [3]; 12.5 mg/kg, 2 min): 339 ± 57 time · min^−1 | Heart rate (myocardio ischemia mice [3]; 12.5 mg/kg, 5 min): 349 ± 50 time · min^−1 | Heart rate (myocardio ischemia mice [3]; 12.5 mg/kg, 10 min): 395 ± 45 time · min^−1 | Heart rate (myocardio ischemia mice [3]; 12.5 mg/kg, Normal): 403 ± 54 time · min^−1 | Heart rate (myocardio ischemia mice [3]; 25 mg/kg, 5 s): 476 ± 65 time · min^−1 | Heart rate (myocardio ischemia mice [3]; 25 mg/kg, 10 s): 442 ± 81 time · min^−1 | Heart rate (myocardio ischemia mice [3]; 25 mg/kg, 15 s): 405 ± 88 time · min^−1 | Heart rate (myocardio ischemia mice [3]; 25 mg/kg, 30 s): 428 ± 65 time · min^−1 | Heart rate (myocardio ischemia mice [3]; 25 mg/kg, 1 min): 403 ± 54 time · min^−1 | Heart rate (myocardio ischemia mice [3]; 25 mg/kg, 2 min): 386 ± 41 time · min^−1 | Heart rate (myocardio ischemia mice [3]; 25 mg/kg, 5 min): 375 ± 37 time · min^−1 | Heart rate (myocardio ischemia mice [3]; 25 mg/kg, 10 min): 420 ± 43 time · min^−1 | Heart rate (myocardio ischemia mice [3]; 25 mg/kg, Normal): 474 ± 68 time · min^−1 | Heart rate (myocardio ischemia mice [3]; 50 mg/kg, 5 s): 485 ± 95 time · min^−1 | Heart rate (myocardio ischemia mice [3]; 50 mg/kg, 10 s): 423 ± 84 time · min^−1 | Heart rate (myocardio ischemia mice [3]; 50 mg/kg, 15 s): 420 ± 76 time · min^−1 | Heart rate (myocardio ischemia mice [3]; 50 mg/kg, 30 s): 378 ± 34 time · min^−1 | Heart rate (myocardio ischemia mice [3]; 50 mg/kg, 1 min): 327 ± 89 time · min^−1 | Heart rate (myocardio ischemia mice [3]; 50 mg/kg, 2 min): 339 ± 45 time · min^−1 | Heart rate (myocardio ischemia mice [3]; 50 mg/kg, 5 min): 347 ± 55 time · min^−1 | Heart rate (myocardio ischemia mice [3]; 50 mg/kg, 10 min): 435 ± 72 time · min^−1 | Heart rate (myocardio ischemia mice [3]; 50 mg/kg, Normal): 483 ± 91 time · min^−1 | effect on heart rate restoration in words (myocardio ischemia mice [3]; 12.5, 25 and 50 mg/kg): has certain therapy effect on the heart disorder caused by myocardial ischemia; also recorded: has certain therapy effect on the heart disorder caused by myocardio ischemia | Average suppression rate ([4]; 0.5 μmol/L): 3.68% | OD value ([4]; 0.5 μmol/L): 0.676 ± 0.021 | Average suppression rate ([4]; 1 μmol/L): 5.02% | OD value ([4]; 1 μmol/L): 0.666 ± 0.069 | Average suppression rate ([4]; 5 μmol/L): 3.47% | OD value ([4]; 5 μmol/L): 0.677 ± 0.081 | Average suppression rate ([4]; 10 μmol/L): 4.20% | OD value ([4]; 10 μmol/L): 0.672 ± 0.085 | Average suppression rate ([4]; 50 μmol/L): 20.17% | OD value ([4]; 50 μmol/L): 0.560 ± 0.062 | Average suppression rate ([4]; 100 μmol/L): 28.70% | OD value ([4]; 100 μmol/L): 0.500 ± 0.068 | Average suppression rate ([4]; 150 μmol/L): 44.04% | OD value ([4]; 150 μmol/L): 0.392 ± 0.041 | Average suppression rate ([4]; 200 μmol/L): 59.42% | OD value ([4]; 200 μmol/L): 0.285 ± 0.067 | solubility [5]: 26.0 mg/mL (≈ 44.9 mM) | solubility relative to puerarin ([5]; puerarin 5.2 g/L): 5 times
